From US11000033B2, “Ketone or oxime compound, and herbicide” (NISSAN CHEMICAL CORPORATION, priority 2014, dated 2021)

What was measured:
Assay type in all cases: in vivo
[1] = test system: Echinochloa crus-galli var. crus-galli; test: Test Example 3: herbicidal effect by foliage application, Wagner pot (symbol H); details: application herbicide amount 320 g/ha
Outline: (§1)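 Steps: fill pot with alluvial soil; add water to 0.1–0.5 cm depth; sow weed and rice seed; grow 14 days at 25–30 °C; spray diluted emulsion over the leaves; rate effect after 3 weeks.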

Setaria viridis = test: Test Example 5: herbicidal effect by foliage application, plastic box (symbol G); details: 320 g/ha, 3 weeks after application
Outline: (§2)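 Seeds were sown in sterilized diluvial soil, covered with about 1.5 cm of soil and grown 14 days in a greenhouse at 25° C. to 30° C. An emulsifiable formulation diluted in water to a set rate was sprayed over foliage, and injury was scored 3 weeks later.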

Apera spica-venti [2] = test: Test Example 5: herbicidal effect by foliage application, plastic box (symbol L); details: 320 g/ha, 3 weeks after application
Outline: as §2

rice plant = test: Test Example 5: effect on crop by foliage application, plastic box (symbol b); details: 320 g/ha, 3 weeks after application
Outline: (§3)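 In a plastic box 7 cm deep filled with sterilized diluvial soil, seeds of crops and weeds such as Digitaria ciliaris, Avena fatua and Amaranthus retroflexus are sown in spots and covered with about 1.5 cm of soil before greenhouse growth at 25–30° C.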

beet = test: Test Example 5: effect on crop by foliage application, plastic box (symbol f); details: 320 g/ha, 3 weeks after application
Outline: as §3

[3] = test system: Echinochloa crus-galli var. crus-galli; test: Test Example 4: herbicidal effect by soil treatment (symbol H); details: for H (Echinochloa crus-galli var. crus-galli) herbicidal effect grade: application herbicide amount 320 g/ha
Outline: (§4)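 Seeds were sown in sterilized diluvial soil, covered with about 1.5 cm of soil, and the soil surface was sprayed with a water-diluted emulsion of the compound at a predetermined rate. Plants grew in a greenhouse at 25° C. to 30° C.; effects were scored visually 3 weeks after application.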

[4] = test system: Echinochloa oryzacola Vasing.; test: Test Example 2: herbicidal activity, application during weed generation in submerged conditions (symbol A); details: Table 23; application herbicide amount 320 g/ha; grade 0-5 by criteria of Test Example 1
Outline: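 Submerged alluvial soil (4 cm) sown with mixed seed; greenhouse 25–30° C. 1–2 leaf: diluted emulsion onto water surface, preset dose. Visual score, 3 wk.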

Cyperus difformis = test: Test Example 3: herbicidal effect by foliage application, Wagner pot (symbol E); details: application herbicide amount 320 g/ha
Outline: as §1

[5] = test system: Echinochloa oryzacola Vasing.; test: Test Example 1: herbicidal activity, application before weed generation in submerged conditions (symbol A); details: application herbicide amount 320 g/ha
Outline: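 Paddy pre-emergence test. Formulated emulsion, water-diluted to a predetermined rate, is applied to floodwater on sowing day; rice transplanted at 2.5 leaves. Effect read at 3 weeks on a 0–5 herbicidal-ratio scale.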

soybean = test: Test Example 5: effect on crop by foliage application, plastic box (symbol d); details: 320 g/ha, 3 weeks after application
Outline: as §3

Stellaria media = test: Test Example 5: herbicidal effect by foliage application, plastic box (symbol P); details: 320 g/ha, 3 weeks after application
Outline: as §2

Apera spica-venti [6] = test: Test Example 4: herbicidal effect by soil treatment (symbol L); details: for L (Apera spica-venti) herbicidal effect grade: application herbicide amount 320 g/ha
Outline: as §4

Amaranthus retroflexus = test: Test Example 4: herbicidal effect by soil treatment (symbol N); details: for N (Amaranthus retroflexus) herbicidal effect grade: application herbicide amount 320 g/ha
Outline: as §4

SMILES: CC(CC1CC(O)=C(c2c(C)cc(C)cc2C)C1=O)=NOCC(F)(F)F (stereo not drawn) [1-028]
- herbicidal effect on H (Echinochloa crus-galli var. crus-galli), grade 0-5 [1]: 5 (Herbicidal ratio of 90% or more (almost completely withered))
- G: Setaria viridis, herbicidal effect grade (Setaria viridis): 5 (Herbicidal ratio of 90% or more (almost completely withered))
- L: Apera spica-venti, herbicidal effect grade (Apera spica-venti [2]): 5 (Herbicidal ratio of 90% or more (almost completely withered))
- b: directly sowed rice plant, effect on crop grade (rice plant): 5 (Herbicidal ratio of 90% or more (almost completely withered))
- f: beet, effect on crop grade (beet): 0 (Herbicidal ratio of 5% or lower (almost no effect))
- H (Echinochloa crus-galli var. crus-galli) herbicidal effect grade [3]: 5 (Herbicidal ratio of 90% or more (almost completely withered))
- Herbicidal effect grade, A: Echinochloa oryzacola Vasing. [4]: 5 (Herbicidal ratio of 90% or more (almost completely withered))
- herbicidal effect on E, grade 0-5 (Cyperus difformis): 5 (Herbicidal ratio of 90% or more (almost completely withered))
- Herbicidal effect grade, A: Echinochloa oryzacola Vasing. [5]: 5 (Herbicidal ratio of 90% or more (almost completely withered))
- d: soybean, effect on crop grade (soybean): 2 (Herbicidal ratio of 20% or higher and lower than 40%)
- P: Stellaria media, herbicidal effect grade (Stellaria media): 3 (Herbicidal ratio of 40% or higher and lower than 70%)
- L (Apera spica-venti) herbicidal effect grade (Apera spica-venti [6]): 5 (Herbicidal ratio of 90% or more (almost completely withered))
- N (Amaranthus retroflexus) herbicidal effect grade (Amaranthus retroflexus): 3 (Herbicidal ratio of 40% or higher and lower than 70%)

SMILES: CON=C(C)CC1CC(OC(=O)COc2ccc(Cl)cc2)=C(c2c(C)cc(C)cc2C)C1=O (stereo not drawn) [1-044]
- herbicidal effect on H (Echinochloa crus-galli var. crus-galli), grade 0-5 [1]: 5 (Herbicidal ratio of 90% or more (almost completely withered))
- G: Setaria viridis, herbicidal effect grade (Setaria viridis): 5 (Herbicidal ratio of 90% or more (almost completely withered))
- L: Apera spica-venti, herbicidal effect grade (Apera spica-venti [2]): 5 (Herbicidal ratio of 90% or more (almost completely withered))
- b: directly sowed rice plant, effect on crop grade (rice plant): 5 (Herbicidal ratio of 90% or more (almost completely withered))
- f: beet, effect on crop grade (beet): 2 (Herbicidal ratio of 20% or higher and lower than 40%)
- H (Echinochloa crus-galli var. crus-galli) herbicidal effect grade [3]: 5 (Herbicidal ratio of 90% or more (almost completely withered))
- Herbicidal effect grade, A: Echinochloa oryzacola Vasing. [4]: 5 (Herbicidal ratio of 90% or more (almost completely withered))
- herbicidal effect on E, grade 0-5 (Cyperus difformis): 5 (Herbicidal ratio of 90% or more (almost completely withered))
- Herbicidal effect grade, A: Echinochloa oryzacola Vasing. [5]: 5 (Herbicidal ratio of 90% or more (almost completely withered))
- d: soybean, effect on crop grade (soybean): 4 (Herbicidal ratio of 70% or higher and lower than 90%)
- P: Stellaria media, herbicidal effect grade (Stellaria media): 0 (Herbicidal ratio of 5% or lower (almost no effect))
- L (Apera spica-venti) herbicidal effect grade (Apera spica-venti [6]): 5 (Herbicidal ratio of 90% or more (almost completely withered))
- N (Amaranthus retroflexus) herbicidal effect grade (Amaranthus retroflexus): 4 (Herbicidal ratio of 70% or higher and lower than 90%)

SMILES: CON=C(C)CC1CC(OC(=O)COc2ccc3ccccc3c2)=C(c2c(C)cc(C)cc2C)C1=O (stereo not drawn) [1-083]
- herbicidal effect on H (Echinochloa crus-galli var. crus-galli), grade 0-5 [1]: 5 (Herbicidal ratio of 90% or more (almost completely withered))
- G: Setaria viridis, herbicidal effect (criteria 0-5) (Setaria viridis): 5 (Herbicidal ratio of 90% or more (almost completely withered))
- L: Apera spica-venti, herbicidal effect (criteria 0-5) (Apera spica-venti [2]): 5 (Herbicidal ratio of 90% or more (almost completely withered))
- b: directly sowed rice plant, effect on crop (criteria 0-5) (rice plant): 5 (Herbicidal ratio of 90% or more (almost completely withered))
- f: beet, effect on crop (criteria 0-5) (beet): 0 (Herbicidal ratio of 5% or lower (almost no effect))
- H: Echinochloa crus-galli var. crus-galli, herbicidal effect grade ([3]; 320 g/ha): 5 (Herbicidal ratio of 90% or more (almost completely withered))
- Herbicidal effect grade, A: Echinochloa oryzacola Vasing. [4]: 5 (Herbicidal ratio of 90% or more (almost completely withered))
- herbicidal effect on E, grade 0-5 (Cyperus difformis): 5 (Herbicidal ratio of 90% or more (almost completely withered))
- Herbicidal effect grade, A: Echinochloa oryzacola Vasing. [5]: 5 (Herbicidal ratio of 90% or more (almost completely withered))
- d: soybean, effect on crop (criteria 0-5) (soybean): 4 (Herbicidal ratio of 70% or higher and lower than 90%)
- P: Stellaria media, herbicidal effect (criteria 0-5) (Stellaria media): 4 (Herbicidal ratio of 70% or higher and lower than 90%)
- L: Apera spica-venti, herbicidal effect grade (Apera spica-venti [6]; 320 g/ha): 5 (Herbicidal ratio of 90% or more (almost completely withered))
- N: Amaranthus retroflexus, herbicidal effect grade (Amaranthus retroflexus; 320 g/ha): 5 (Herbicidal ratio of 90% or more (almost completely withered))

SMILES: CON=C(C)CC1CC(OC(=O)C(C)(C)Oc2ccc(Cl)cc2)=C(c2c(C)cc(C)cc2C)C1=O (stereo not drawn) [1-051]
- herbicidal effect on H (Echinochloa crus-galli var. crus-galli), grade 0-5 [1]: 5 (Herbicidal ratio of 90% or more (almost completely withered))
- G: Setaria viridis, herbicidal effect grade (Setaria viridis): 5 (Herbicidal ratio of 90% or more (almost completely withered))
- L: Apera spica-venti, herbicidal effect grade (Apera spica-venti [2]): 5 (Herbicidal ratio of 90% or more (almost completely withered))
- b: directly sowed rice plant, effect on crop grade (rice plant): 5 (Herbicidal ratio of 90% or more (almost completely withered))
- f: beet, effect on crop grade (beet): 0 (Herbicidal ratio of 5% or lower (almost no effect))
- H (Echinochloa crus-galli var. crus-galli) herbicidal effect grade [3]: 5 (Herbicidal ratio of 90% or more (almost completely withered))
- Herbicidal effect grade, A: Echinochloa oryzacola Vasing. [4]: 5 (Herbicidal ratio of 90% or more (almost completely withered))
- herbicidal effect on E, grade 0-5 (Cyperus difformis): 5 (Herbicidal ratio of 90% or more (almost completely withered))
- Herbicidal effect grade, A: Echinochloa oryzacola Vasing. [5]: 5 (Herbicidal ratio of 90% or more (almost completely withered))
- d: soybean, effect on crop grade (soybean): 4 (Herbicidal ratio of 70% or higher and lower than 90%)
- P: Stellaria media, herbicidal effect grade (Stellaria media): 3 (Herbicidal ratio of 40% or higher and lower than 70%)
- L (Apera spica-venti) herbicidal effect grade (Apera spica-venti [6]): 5 (Herbicidal ratio of 90% or more (almost completely withered))
- N (Amaranthus retroflexus) herbicidal effect grade (Amaranthus retroflexus): 4 (Herbicidal ratio of 70% or higher and lower than 90%)

SMILES: CON=C(CC1CC(O)=C(c2c(C)cc(C)cc2C)C1=O)C(C)(C)C (stereo not drawn) [1-059]
- herbicidal effect on H (Echinochloa crus-galli var. crus-galli), grade 0-5 [1]: 4 (Herbicidal ratio of 70% or higher and lower than 90%)
- G: Setaria viridis, herbicidal effect grade (Setaria viridis): 4 (Herbicidal ratio of 70% or higher and lower than 90%)
- L: Apera spica-venti, herbicidal effect grade (Apera spica-venti [2]): 4 (Herbicidal ratio of 70% or higher and lower than 90%)
- b: directly sowed rice plant, effect on crop grade (rice plant): 4 (Herbicidal ratio of 70% or higher and lower than 90%)
- f: beet, effect on crop grade (beet): 0 (Herbicidal ratio of 5% or lower (almost no effect))
- H (Echinochloa crus-galli var. crus-galli) herbicidal effect grade [3]: 4 (Herbicidal ratio of 70% or higher and lower than 90%)
- Herbicidal effect grade, A: Echinochloa oryzacola Vasing. [4]: 4 (Herbicidal ratio of 70% or higher and lower than 90%)
- herbicidal effect on E, grade 0-5 (Cyperus difformis): 3 (Herbicidal ratio of 40% or higher and lower than 70%)
- Herbicidal effect grade, A: Echinochloa oryzacola Vasing. [5]: 5 (Herbicidal ratio of 90% or more (almost completely withered))
- d: soybean, effect on crop grade (soybean): 0 (Herbicidal ratio of 5% or lower (almost no effect))
- P: Stellaria media, herbicidal effect grade (Stellaria media): 0 (Herbicidal ratio of 5% or lower (almost no effect))
- L (Apera spica-venti) herbicidal effect grade (Apera spica-venti [6]): 5 (Herbicidal ratio of 90% or more (almost completely withered))
- N (Amaranthus retroflexus) herbicidal effect grade (Amaranthus retroflexus): 0 (Herbicidal ratio of 5% or lower (almost no effect))

SMILES: CC(CC1CC(O)=C(c2c(C)cc(C)cc2C)C1=O)=NOCC[Si](C)(C)C (stereo not drawn) [1-055]
- herbicidal effect on H (Echinochloa crus-galli var. crus-galli), grade 0-5 [1]: 5 (Herbicidal ratio of 90% or more (almost completely withered))
- G: Setaria viridis, herbicidal effect grade (Setaria viridis): 3 (Herbicidal ratio of 40% or higher and lower than 70%)
- L: Apera spica-venti, herbicidal effect grade (Apera spica-venti [2]): 5 (Herbicidal ratio of 90% or more (almost completely withered))
- b: directly sowed rice plant, effect on crop grade (rice plant): 5 (Herbicidal ratio of 90% or more (almost completely withered))
- f: beet, effect on crop grade (beet): 0 (Herbicidal ratio of 5% or lower (almost no effect))
- H (Echinochloa crus-galli var. crus-galli) herbicidal effect grade [3]: 4 (Herbicidal ratio of 70% or higher and lower than 90%)
- Herbicidal effect grade, A: Echinochloa oryzacola Vasing. [4]: 2 (Herbicidal ratio of 20% or higher and lower than 40%)
- herbicidal effect on E, grade 0-5 (Cyperus difformis): 4 (Herbicidal ratio of 70% or higher and lower than 90%)
- Herbicidal effect grade, A: Echinochloa oryzacola Vasing. [5]: 5 (Herbicidal ratio of 90% or more (almost completely withered))
- d: soybean, effect on crop grade (soybean): 2 (Herbicidal ratio of 20% or higher and lower than 40%)
- P: Stellaria media, herbicidal effect grade (Stellaria media): 0 (Herbicidal ratio of 5% or lower (almost no effect))
- L (Apera spica-venti) herbicidal effect grade (Apera spica-venti [6]): 2 (Herbicidal ratio of 20% or higher and lower than 40%)
- N (Amaranthus retroflexus) herbicidal effect grade (Amaranthus retroflexus): 0 (Herbicidal ratio of 5% or lower (almost no effect))
